Reference: patent EP4635958A1, “PYRIMIDINE-CONTAINING POLYCYCLIC DERIVATIVE INHIBITOR, AND PREPARATION METHOD THEREFOR AND USE THEREOF” (Shanghai Hansoh Biomedical Co., Ltd., priority 2022, dated 2024)
pIC50: −log10 of the molar value. Read-outs that look alike come from different tables or passages of the source.

Tests used:
[1] = system: GP2D; assay: Inhibition of proliferation of KRAS G12D mutant tumor cell line GP2D (CellTiter-Glo); conditions: read-out: GP2D IC50
[2] = Pharmacokinetic determination in rats (IV and PO, plasma, LCMS/MS); format: in vivo, SD rats; conditions: male SD rats; for AUC(0-inf): read-out: AUCo-∞; for half-life: read-out: T1/2 (converted); for F: PO 30 mg/kg vs IV 1 mg/kg
Description: SD rats were used as test animals to study the pharmacokinetic behavior of the example compounds in rats (plasma) after oral administration.
The example compounds of the present invention, made in house.
3 SD rats per group, male. Shanghai Jiesijie Experimental Animal Co., Ltd., animal production license number (SCXK (Shanghai) 2013-0006 N0.311620400001794).
Formulation of a drug for oral administration: 10% Captisol in 50 mM citrate buffer pH 5.0.
(§1) Formulation of 50 mM citric acid: 4.8 g of citric acid was weighed into a 1000 ml glass bottle, ultrapure water was added to 300 ml, and the mixture was magnetically stirred until completely dissolved, additional ultrapure water was then added to 500 ml to formulate 50 mM citric acid.
(§2) Formulation of a solution containing 50 mM citric acid (10% Captisol, PH = 5): 50 g of Captisol powder was weighed and added to a 1000 ml glass bottle, 300 ml of 50 mM citric acid was added, and the mixture was magnetically stirred until completely dissolved, then additional citric acid was added to 500 ml, and the PH was adjusted to 5 using 10 M NaOH.
The example compounds were weighed and dissolved in the solution and the mixture was shaken well and subjected to ultrasound treatment for 15 min to obtain a colorless clear solution with a concentration of 3 mg/mL.
(§3) Formulation of a drug for intravenous administration: 5%DMSO+10%Solutol HS15+85%PBS.
(§4) The example compounds were weighed, and 5% DMSO was added according to the total administration volume; the mixture was vortexed and sonicated for 2 min to ensure complete dissolution; then, 10% Solutol HS15 was added, and the mixture was vortexed and sonicated for 2 min to achieve complete dissolution; finally, 85% PBS was added, and the mixture was vortexed and sonicated for 5 min; the obtained mixture was filtered through a 0.22 um membrane to obtain a colorless, transparent, and clear solution with a concentration of 0.2 mg/mL.
3 SD rats per group, male; After overnight fasting, the animals were administered orally (PO) at a dose of 30 mg/kg with an administration volume of 10 mL/kg.
3 SD rats per group, male; After overnight fasting, the animals were administered intravenously (IV) at a dose of 1 mg/kg with an administration volume of 5 mL/kg.
0.2 mL of blood was collected from the jugular vein before administration and at 0.25 h, 0.5 h, 1.0 h, 2.0 h, 4.0 h, 6.0 h, 8.0 h, and 24.0 h after administration and placed in an EDTA-2K test tube, and the test tube was centrifuged at 6000 rpm for 6 min at 4°C to separate the plasma, which was stored at -20°C. the animals were fed 4 h after administration.
The final determination results obtained by applying the LCMS/MS method are shown in the table below: Table 8: Pharmacokinetic parameters of the compounds administered intravenously in rats

[3] = Pharmacokinetic determination in mice (IV and PO, plasma, LCMS/MS); format: in vivo, Balb/c mice; conditions: for half-life: read-out: T1/2 (converted)
Excerpt: • 1. Study objective: Balb/c mice were used as test animals to study the pharmacokinetic behavior of the compounds in mice (plasma) after oral administration. • 2. Test scheme • 2.1 Test drugs: The example compounds of the present invention, made in house; • 2.2 Test animals: Balb/c mice, male, purchased from Shanghai Jiesijie Experimental Animal Co., Ltd., animal production license number (SCXK (Shanghai) 2013-0006 N0.311620400001794). • 2.3 Drug formulation: Formulation of a drug for oral administration: 10% Captisol in 50 mM citrate buffer pH 5.0.
as §1, §2
The example compounds were weighed and added to a 4 mL glass bottle separately, 2.4 mL of the solution was added and the mixture was subjected to ultrasound treatment for 10 min to obtain a colorless clear solution with a concentration of 3 mg/mL.
as §3, §4
3 Balb/c mice, male; After overnight fasting, the animals were administered orally (PO) at a dose of 30 mg/kg with an administration volume of 10 mL/kg.
3 Balb/C mice, male; After overnight fasting, the animals were administered intravenously (IV) at a dose of 1 mg/kg with an administration volume of 5 mL/kg.
0.04 mL of blood was collected from the orbit before administration and at 0.25 h, 0.5 h, 1 h, 2 h, 4 h, 6 h, 8 h, and 24 h after administration and placed in an EDTA-2K test tube, and the test tube was centrifuged at 6000 rpm for 6 min at 4°C to separate the plasma, which was stored at -20°C; the animals were fed 4 h after administration.
The final determination results obtained by applying the LCMS/MS method are shown in the table below: Table 6: Pharmacokinetic parameters of the compounds administered intravenously in mice

[4] = Plasma stability test, human plasma; format: in vitro ADME; conditions: human, plasma;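 note: test compound incubated in human plasma, quantified by LC-MS/MS (positive-ion ESI, MRM) against an internal standard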
Description: (§5) Liquid chromatography-mass spectrometer, centrifuge, vortexer, pipette, continuous dispenser, 96-well plate, 50% methanol aqueous solution, acetonitrile solution containing internal standard, blank matrix (plasma of rat, dog, or human), Propantheline (propantheline bromide), Mevinolin (lovastatin), and test compound.
(§6) After whole blood was collected from animals or humans, it was placed in a test tube containing an anticoagulant and centrifuged at 3500 rpm for 10 min to collect the upper pale yellow plasma.
(§7) The compound was weighed and the stock solution was formulated with DMSO and the working solution was formulated with 100 mM phosphate buffer.
(§8) • Instrument: API4000 liquid chromatography-mass spectrometer, AB Company, USA; • the ion source was electrospray ionization source (ESI); • drying gas (N2) temperature was 500°C; • electrospray voltage was 5500V; • the detection method was positive ion detection; • the scanning method was selected reaction monitoring (MRM); • the scanning time was 0.1s.

[5] = Plasma stability test, dog plasma; format: in vitro ADME; conditions: dog, plasma;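 note: parent compound left in dog plasma quantified by LC-MS with positive electrospray ionization, selected reaction monitoring and an internal standard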
Description: as §5, §6, §7, §8

[6] = Plasma stability test, mouse plasma; format: in vitro ADME; conditions: mouse, plasma;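 note: test compound quantified by LC-MS using positive-mode electrospray ionization and MRM scanning, with an internal standard added in acetonitrile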
Description: as §5, §6, §7, §8

[7] = rat, in vivo, PO, 30 mg/kg, overnight fasting, plasma
[8] = rat, in vivo, PO, 30 mg/kg, overnight fasting, plasma, read-out: Cmax
[9] = rat, in vivo, PO, 30 mg/kg, overnight fasting, plasma, read-out: Tmax
[10] = IV, 1 mg/kg, overnight fasting, plasma
[11] = PO, 30 mg/kg, overnight fasting, plasma
[12] = rat, in vivo, IV, 1 mg/kg, overnight fasting, plasma

Question: With C#Cc1c(F)ccc2cc(O)cc(-c3nc4c5c(nc(OCC6(CN7CC8CC(=C(F)F)CC8C7)CC6)nc5c3F)N3C[C@H]5CC[C@H](N5)[C@H]3[C@H](C)O4)c12 (stereo partly drawn) [Example 133] as the compound, how does the pIC50 ([1]; Homo sapiens, GP2d, 72 h) read?
Answer: 9.28

Question: And the AUC(0-inf) [2, 7]?
Answer: 6510 ng·h/mL

Question: And the Cmax [2, 8]?
Answer: 588 ng/mL

Question: And the half-life [2, 7]?
Answer: 7 h

Question: What about the Tmax [2, 9] of the same compound?
Answer: 4 h

Question: Which results are given for CC[C@@H]1Oc2nc(-c3cc(N)cc(Cl)c3C(F)(F)F)c(F)c3nc(OCC4(CN5CCC(=CF)CC5)CC4)nc(c23)N2C[C@@H]3CC[C@@H](N3)[C@@H]12 [Example 322, 3-chloro-5-((5S,5aS,6R,9S)-5-ethyl-1-fluoro-12-((1-((4-(fluoromethylene)piperidin-1-yl)methyl)cyclopropyl)methoxy)-5a,6,7,8,9,10-hexahydro-5H-4-oxa-3,10a,11,13,14-pentaaza-6,9-methylnaphtho[1,8-ab]hept-2-yl)-4-(trifluoromethyl)aniline]?
Answer: pIC50 ([1]; proliferation, about 72 h, CellTiter-Glo): 9.21; AUCo-∞ [2, 10]: 219 ng·h/mL; C0 [2, 10]: 326 ng/mL; CL [2, 10]: 76.2 mL/min/kg; T1/2 [2, 10]: 11.6 h; F [2]: 10%; AUCo-∞ [2, 11]: 694 ng·h/mL; Cmax [2, 11]: 40 ng/mL; T1/2 [2, 11]: 10.4 h; Tmax [2, 11]: 6.0 h

Question: With C#Cc1c(F)ccc2cc(O)cc(-c3nc4c5c(nc(OCC6(CN7CCC(=NOC)C8(CC8)C7)CC6)nc5c3F)N3C[C@H]5CC[C@H](N5)[C@H]3[C@H](C)O4)c12 [Example 342, 5-((1-((((5S,5aS,6S,9R)-2-(8-ethynyl-7-fluoro-3-hydroxynaphthalen-1-yl)-1-fluoro-5-methyl-5a,6,7,8,9,10-hexahydro-5H-4-oxa-3,10a,11,13,14-pentaaza-6,9-methylnaphtho[1,8-ab]heptene-12-yl)oxy)methyl)cyclopropyl)methyl)-5-azaspiro[2.5]octan-8-one O-methyloxime] as the compound, how does the pIC50 ([1]; Homo sapiens, GP2d, 72 h) read?
Answer: 9.39

Question: What does the source list for C#Cc1c(F)ccc2cc(O)cc(-c3nc4c5c(nc(OCC6(CN7CCC(=C(F)F)CC7)CC6)nc5c3F)N3C[C@H]5CC[C@H](N5)[C@H]3[C@H](CC)O4)c12 [Example 124, 4-((5S,5aS,6S,9R)-12-((1-((4-(difluoromethylene)piperidin-1-yl)methyl)cyclopropyl)methoxy)-5-ethyl-1-fluoro-5a,6,7,8,9,10-hexahydro-5H-4-oxa-3,10a,11,13,14-pentaaza-6,9-methylnaphtho[1,8-ab]hept-2-yl)-5-ethynyl-6-fluoronaphthalen-2-ol]?
Answer: pIC50 ([1]; Homo sapiens, GP2d, 72 h): 9.01; F ([3]; PO 30 mg/kg vs IV 1 mg/kg, male Balb/c mice): 23%; AUC(0-inf) ([3]; mouse, in vivo, Balb/c mice, intravenously (IV), 1 mg/kg, plasma, read-out: AUCo-∞): 374 ng·h/mL; C0 ([3]; mouse, in vivo, Balb/c mice, intravenously (IV), 1 mg/kg, plasma, read-out: C0): 412 ng/mL; clearance ([3]; mouse, in vivo, Balb/c mice, intravenously (IV), 1 mg/kg, plasma, read-out: CL): 44.6 mL/min/kg; half-life ([3]; mouse, in vivo, Balb/c mice, intravenously (IV), 1 mg/kg, plasma): 11.5 h; AUC(0-inf) ([3]; mouse, in vivo, PO, 30 mg/kg, male Balb/c mice, overnight fasting, plasma, read-out: AUC0-∞): 2610 ng·h/mL; Cmax ([3]; mouse, in vivo, PO, 30 mg/kg, male Balb/c mice, overnight fasting, plasma, read-out: Cmax): 391 ng/mL; half-life ([3]; mouse, in vivo, PO, 30 mg/kg, male Balb/c mice, overnight fasting, plasma): 6.6 h; Tmax ([3]; mouse, in vivo, PO, 30 mg/kg, male Balb/c mice, overnight fasting, plasma, read-out: Tmax): 1 h; F [2]: 18%; AUC(0-inf) [2, 12]: 1110 ng·h/mL; C0 ([2]; rat, in vivo, IV, 1 mg/kg, overnight fasting, plasma, read-out: C0): 524 ng/mL; clearance ([2]; rat, in vivo, IV, 1 mg/kg, overnight fasting, plasma, read-out: CL): 15 mL/min/kg; half-life [2, 12]: 9 h; AUC(0-inf) [2, 7]: 6170 ng·h/mL; Cmax [2, 8]: 471 ng/mL; half-life [2, 7]: 6.8 h; Tmax [2, 9]: 6 h

Question: With C#Cc1c(F)ccc2cc(O)cc(-c3nc4c5c(nc(OCC6(CN7CC8CC(=C(F)F)CC8C7)CC6)nc5c3F)N3C[C@H]5CC[C@H](N5)[C@H]3[C@H](CC)O4)c12 (stereo partly drawn) [Example 141] as the compound, how does the pIC50 ([1]; Homo sapiens, GP2d, 72 h) read?
Answer: 9.03

Question: And the AUC(0-inf) [2, 7]?
Answer: 17300 ng·h/mL

Question: What about the Cmax [2, 8] of the same compound?
Answer: 869 ng/mL

Question: And the half-life [2, 7]?
Answer: 18.9 h

Question: And the Tmax [2, 9]?
Answer: 2 h

Question: For CC(C)[N+](C)(CCOC(=O)C1c2ccccc2Oc2ccccc21)C(C)C [Propantheline bromide, propantheline bromide, reference compound], which half-life [4] is on record?
Answer: 0.27 h

Question: And the “Remaining rate (%) 0 min” value ([4]; 0 h)?
Answer: 100.00%

Question: What about the “Remaining rate (%) 15 min” value ([4]; 0.25 h) of the same compound?
Answer: 26.78%

Question: What about the “Remaining rate (%) 30 min” value ([4]; 0.5 h) of the same compound?
Answer: 5.05%

Question: What about the “Remaining rate (%) 60 min” value ([4]; 1 h) of the same compound?
Answer: 0.25%

Question: What about the “Remaining rate (%) 120 min” value ([4]; 2 h) of the same compound?
Answer: 0.05%

Question: What about the half-life [5] of the same compound?
Answer: 1.34 h

Question: What about the “Remaining rate (%) 0 min” value ([5]; 0 h) of the same compound?
Answer: 100.00%

Question: And the “Remaining rate (%) 15 min” value ([5]; 0.25 h)?
Answer: 95.25%

Question: And the “Remaining rate (%) 30 min” value ([5]; 0.5 h)?
Answer: 95.45%

Question: What about the “Remaining rate (%) 60 min” value ([5]; 1 h) of the same compound?
Answer: 75.66%

Question: What about the “Remaining rate (%) 120 min” value ([5]; 2 h) of the same compound?
Answer: 36.25%

Question: And the half-life [6]?
Answer: 0.462 h

Question: And the “Remaining rate (%) 0 min” value ([6]; 0 h)?
Answer: 100.00%

Question: And the “Remaining rate (%) 15 min” value ([6]; 0.25 h)?
Answer: 79.79%

Question: What about the “Remaining rate (%) 30 min” value ([6]; 0.5 h) of the same compound?
Answer: 48.66%

Question: And the “Remaining rate (%) 60 min” value ([6]; 1 h)?
Answer: 23.39%

Question: And the “Remaining rate (%) 120 min” value ([6]; 2 h)?
Answer: 6.66%

Question: With C#Cc1c(F)ccc2cc(O)cc(-c3nc4c5c(nc(OCC6(CN7C8CCC7CC(=C(F)F)C8)CC6)nc5c3F)N3C[C@H]5CC[C@H](N5)[C@H]3[C@H](C)O4)c12 [Example 134] as the compound, how does the pIC50 ([1]; Homo sapiens, GP2d, 72 h) read?
Answer: 9.00

Question: Which results are given for C#Cc1c(F)ccc2cc(O)cc(-c3nc4c5c(nc(OCC6(CN7CCCC(=C(F)F)CC7)CC6)nc5c3F)N3C[C@H]5CC[C@H](N5)[C@H]3[C@H](CC)O4)c12 [Example 140]?
Answer: pIC50 ([1]; Homo sapiens, GP2d, 72 h): 9.10; AUC(0-inf) [2, 7]: 2280 ng·h/mL; Cmax [2, 8]: 118 ng/mL; half-life [2, 7]: 11 h; Tmax [2, 9]: 2 h

Question: With [2H]C([2H])([2H])[C@@H]1Oc2nc(-c3cc(O)cc4ccc(F)c(C#C)c34)c(F)c3nc(OC([2H])([2H])C4(C([2H])([2H])N5CCC(=CF)CC5)CC4)nc(c23)N2C[C@H]3CC[C@H](N3)[C@@H]12 [Example 298] as the compound, how does the pIC50 ([1]; Homo sapiens, GP2d, 72 h) read?
Answer: 9.55

Question: With C#Cc1c(F)ccc2cc(O)cc(-c3nc4c5c(nc(OCC6(CN7CC8CCC7CC8=NOC)CC6)nc5c3F)N3C[C@H]5CC[C@H](N5)[C@H]3[C@H](C)O4)c12 [Example 345] as the compound, how does the pIC50 ([1]; Homo sapiens, GP2d, 72 h) read?
Answer: 9.74
